We go through one sequence from patent publication US7169604B1, “Method for PR-39 peptide mediated selective inhibition of IκBα degradation” (Beth Israel Deaconess Medical Center, priority 1998, dated 2007).

The target in assay [1] is T1, α7 subunit of the 20S proteasome (Mus musculus, UniProt O70435).
T1 construct: made in house; host or cells: yeast (Y190 for the screen, CG1945 for the deletion analysis)
T1 sequence (O70435 1-255): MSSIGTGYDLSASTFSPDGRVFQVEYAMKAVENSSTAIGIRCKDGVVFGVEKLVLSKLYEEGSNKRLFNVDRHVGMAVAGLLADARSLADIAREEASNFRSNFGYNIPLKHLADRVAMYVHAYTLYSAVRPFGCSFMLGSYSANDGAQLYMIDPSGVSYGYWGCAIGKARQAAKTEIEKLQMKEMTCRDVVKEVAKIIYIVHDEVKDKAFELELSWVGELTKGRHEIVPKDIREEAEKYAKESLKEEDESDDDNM
As to the kind of experiment: Yeast two-hybrid binding of PR-39 to α7 and its fragments. Particulars: growth of lacZ+ colonies on selective medium; deletion mutants of mouse α7. An excerpt: Two-hybrid screening was done using Clontech MATCHMAKER GAL4 System 2 (Clontech). cDNA of porcine PR39 peptide corresponding to the 4th exon (amino acids 131 to 169) was subcloned into pAS2-1 vector as bait. Mouse embryo 3T3 MATCHMAKER cDNA library (Clontech) was screened in the yeast Y190 strain. Plasmids from HIS3/LacZ positive clones were sequenced and co-transformed with bait plasmid back into the Y190 strain to confirm the interaction.
To identify possible intracellular targets of PR-39 peptide action, a yeast two-hybrid screen of mouse CDNA library was performed using the unique 4th exon DNA sequence of porcine PR-39 gene as “bait”. […] All four clones encoded overlapping identical cDNA sequences which are highly homologous to the sequence of the human α7 (HC8) subunit of the 20S proteasome (GeneBank accession AF055983).
Deletion mutants of the mouse α7 subunit were cloned into yeast two-hybrid vector, and the extent of growth of lacZ+ colonies on selective medium following co-transformation with PR-39 construct in the yeast CG1945 was determined.

Assay [2] deals with IκBα. Nature of the assay: TNF-α induced degradation of IκBα in U937 cells. It is filed as cell-based, human. Particulars: 45 min pretreatment with 100 nM, TNF-α 1 ng/ml, 10 min. As to the method:
Tumor necrosis factor (TNF)-α is known to induce rapid degradation of IκBα by the Ub-proteasome pathway.
As shown by FIG. 1E, PR-39 prevents TNF-a induced degradation of IκBα. U937 cells were cultured in 10% FBs-RPMI medium in the absence (−) or presence of TNF-a (1 ng/ml). 10 min following TNF-α addition, the cells were washed and IκBα protein levels assessed by Western blotting.
Note that a […] 45 min of pretreatment with 100 nM of PR-39 or 10 μM of MG132 or lactacystin (LC) prior to addition of blocked TNF-α, blocked cytokine-induced degradation of IκBα expression.

The subject of assay [3] is IκBα. As to the kind of experiment: Reversibility of inhibition of IκBα degradation after washout in U937 cells. It is filed as cell-based, human. Particulars: 100 nM for 45 min, washed, 45 min later TNF-α 1 ng/ml, 10 min. As to the method: In parallel cells were exposed to MG132, a rapidly reversible competitive inhibitor of the proteasome or with lactacystin which covalently and irreversibly modifies the active site threonine residues. The results are shown by FIG. 1F.
U937 cells were pretreated with 100 nM of PR-39, 10 μM of either MG132 or lactacystin (LC) or buffer (Control) for 45 min. These cells were then extensively washed with fresh medium. 45 min later TNF-α (1 ng/ml) was added to medium, and the extent of IκBα degradation was determined 10 min later by Western blotting.

The test system of assay [4] is IκBα. Nature of the assay: IκBα degradation in mouse pancreas, caerulein-induced acute pancreatitis. It is filed as in vivo. Particulars: 10 mg/kg i.v. 1 hour before caerulein 50 μg/kg i.v.; 30 min later. As to the method: Male mice weighing 20-25 g (ICR, Charles River Laboratories, Wilmington, Mass.) were pretreated with PR-39 (10 mg/kg, i.v.) or physiological saline 1 hour before injecting 50 μg/kg i.v. of caerulein (Research Plus, Bayonne, N.J.) to induce acute pancreatitis. 30 min later the animals were sacrificed in a CO2 chamber and a 75-100 mg piece of pancreas was removed for Western blotting and NFκB gel shift assays.
As empirically shown, induction of acute pancreatitis by treatment with the cholecystokinin analog caerulein leads to the prompt disappearance of IκBα (FIG. 2B) and activation of NFκB-dependent transcription in the pancreas (FIG. 2C).

A further assay deals with NFκB. As to the kind of experiment: NFκB electromobility shift assay in mouse pancreas, caerulein-induced pancreatitis. The assay is classed as in vivo. The following applies: 10 mg/kg i.v. 1 hour before caerulein; 30 min later.
The subject of another assay is p21, cyclin E and c-fos. As to the kind of experiment: Levels of proteasome-regulated proteins by Western blotting. It is filed as cell-based, human. As to the method: This is shown by FIG. 3C.
The level of proteasome-regulated cell cycle repressor p21, cyclin E and c-fos proteins were determined by Western blotting in U937 cells pretreated with various amounts of PR-39 and then exposed to TNF-α (1 ng/ml).
Background: In western blotting, separated proteins are transferred to a membrane and probed.

In assay [5] the test system is IκBα. Nature of the assay: IκBα ubiquitination in HA-Ub expressing ECV304 cells. It is filed as cell-based, human. The following applies: 10 μM pretreatment, TNF-α 1 ng/ml. As to the method: ECV304 cells were stably transfected with a HA-tagged ubiquitin plasmid MT123 (kind gift of Dr. G. Walz, BIDMC). The clone with the highest expression of HA-ubiquitin was treated with 10 μM PR39 for 45 min followed by treatment with 1 ng/ml TNFα for 20 min. At that point, the cells were washed and lysed and IκBα was immunoprecipitated. Following SDS-PAGE and membrane transfer of the immunoprecipitated material, the HA-ubiquitinated IκBα was visualized by Western blotting with an anti-HA antibody (Santa Cruz).
To assess the effect of PR-39 peptide treatment on IκBα ubiquitination in intact cells, a stable ECV304-derived cell line expressing HA-tagged ubiquitin was generated. […] HA-Ub expressing ECV304 cells were exposed to 1 ng/ml TNF-α in the presence (+) or absence (−) of 10 μM PR-39 pretreatment. 45 min later the cells were lysed and subjected to IκBα immunoprecipitation followed by Western blotting of the pellet material with anti-HA antibody. Note the presence of multiple ubiquitinated IκBα intermediaries in PR-39 peptide treated cells but not in control cells.

The target of another assay is T2, IκBα-VCP (Homo sapiens, UniProt P25963+P55072).
T2 construct: endogenous in cells; host or cells: wild type ECV304
T2 sequence (P25963 whole entry): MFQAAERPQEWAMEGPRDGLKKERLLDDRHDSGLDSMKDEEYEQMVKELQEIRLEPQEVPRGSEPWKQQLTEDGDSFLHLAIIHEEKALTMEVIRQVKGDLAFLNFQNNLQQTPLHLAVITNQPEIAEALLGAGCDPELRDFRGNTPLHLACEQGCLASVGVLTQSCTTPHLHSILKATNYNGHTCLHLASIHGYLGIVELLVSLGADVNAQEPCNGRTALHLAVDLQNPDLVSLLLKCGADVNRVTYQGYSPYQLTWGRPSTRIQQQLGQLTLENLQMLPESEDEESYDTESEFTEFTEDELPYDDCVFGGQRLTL
T2 sequence (P55072 2-806 limits assumed): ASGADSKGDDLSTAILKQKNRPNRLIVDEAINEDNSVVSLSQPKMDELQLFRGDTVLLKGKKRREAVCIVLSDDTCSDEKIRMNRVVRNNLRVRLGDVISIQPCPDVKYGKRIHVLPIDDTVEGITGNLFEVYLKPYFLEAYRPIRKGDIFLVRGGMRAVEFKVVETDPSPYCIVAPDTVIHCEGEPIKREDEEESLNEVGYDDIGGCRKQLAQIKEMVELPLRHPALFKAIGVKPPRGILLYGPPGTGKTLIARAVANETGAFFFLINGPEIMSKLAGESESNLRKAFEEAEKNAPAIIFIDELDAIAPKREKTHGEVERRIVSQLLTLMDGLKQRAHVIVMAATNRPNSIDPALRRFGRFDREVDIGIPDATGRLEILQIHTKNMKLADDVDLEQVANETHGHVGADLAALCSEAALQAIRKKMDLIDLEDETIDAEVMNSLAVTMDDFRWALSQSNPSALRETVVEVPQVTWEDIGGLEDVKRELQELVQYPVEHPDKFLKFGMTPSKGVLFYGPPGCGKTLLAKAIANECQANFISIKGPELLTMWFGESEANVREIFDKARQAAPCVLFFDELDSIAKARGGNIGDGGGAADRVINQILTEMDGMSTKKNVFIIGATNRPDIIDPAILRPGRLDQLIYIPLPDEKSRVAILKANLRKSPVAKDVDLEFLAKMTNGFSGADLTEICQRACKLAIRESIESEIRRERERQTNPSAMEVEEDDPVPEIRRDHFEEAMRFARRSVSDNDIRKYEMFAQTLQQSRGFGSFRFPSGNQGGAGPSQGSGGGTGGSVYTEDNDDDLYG
As to the kind of experiment: IκBα-VCP binding (IκBα immunoprecipitation, anti-VCP Western blot) in ECV304 cells. The following applies: wild type ECV304 cells, 10 μM pretreatment, TNF-α 1 ng/ml. It is filed as cell-based. An excerpt: Wild type ECV304 cells (treated as described in FIG. 4C) were subjected to immunoprecipitation with anti-IκBα antibody (IκBα-IP) followed by Western blotting with anti-VCP-3 antibody (1:3000, dilution; a kind gift of Dr. C. C. Li (NIH)). Note the presence of 90 kD VCP band in the presence or absence of PR-39 treatment.
Pretreatment with PR-39 increased the amount of VCP in the IκBα immunoprecipitate (FIG. 4D) as would be expected given the increased amount of ubiquitinated forms of IκBα in the PR-39-treated cells.

Ends that are not written are not given here.

In the case of “RRRPRPPYLPRPRPPPFFPPRLPPRIPPGFPPRFPPRFP [PR-39]”, the “binding of PR-39 to α7 and its fragments” value in assay [1] is “only the full length a7 construct was able to bind to PR-39”. For the same sequence, in the assay with IκBα [2], the “TNF-α caused decline of the level of IκBα” value was “markedly reduced”. Besides, the “extent of IκBα degradation after washout” value with IκBα [3] is “complete disappearance of IκBα protein”. For the same sequence, in the assay with IκBα [4], the “IκBα in mouse pancreas (Western blotting)” value is reported as “preservation of IκBα”. For the same sequence, the “NFκB gel shift in mouse pancreas” value in the assay with NFκB is reported as “almost complete disappearance of NFκB gel shift”. In addition, the “levels of p21, cyclin E and c-fos” value with p21, cyclin E and c-fos (ECV304 cells) is “failed to demonstrate any effect”. Further, in the assay on p21, cyclin E and c-fos (U937 cells pretreated with various amounts, then TNF-α 1 ng/ml), the “proteasome-mediated degradation of p21, cyclin E and c-fos” value is reported as “lack of PR-39 dependent inhibition”. Besides, the “ubiquitinated IκBα in cells” value with IκBα [5] is “accumulation of more ubiquitinated IκBα complexes”. For the same sequence, the IκBα-VCP binding entry with IκBα-VCP was “does not inhibit IκBα-VCP binding”.
